Source: patent US6916832B2, “Chromeno[4,3,2-de]isoquinolines as potent dopamine receptor ligands” (University of North Carolina at Chapel Hill, priority 1999, dated 2005)
Values belong to the compound of their own block, whether it stands above or below them.

Tests used:
[1] = test system: MPTP-treated monkey model; settings: cited from earlier work
D1 receptor = D1 receptor (Homo sapiens, UniProt P21728); settings: preparations with decreased receptor reserve; cited from earlier work
D1 receptors [2] = biological target: T1, D1 receptors (Rattus norvegicus, UniProt P18901); assay: cAMP production in rat striatum homogenate; assay type: biochemical; settings: for agonist intrinsic activity at D1 receptors: rat striatum / rat striatal membranes, relative to dopamine
T1 construct: Frozen rat striata was homogenized by seven manual strokes; from tissue; host or cells: rat striatum
T1 sequence (P18901 whole entry): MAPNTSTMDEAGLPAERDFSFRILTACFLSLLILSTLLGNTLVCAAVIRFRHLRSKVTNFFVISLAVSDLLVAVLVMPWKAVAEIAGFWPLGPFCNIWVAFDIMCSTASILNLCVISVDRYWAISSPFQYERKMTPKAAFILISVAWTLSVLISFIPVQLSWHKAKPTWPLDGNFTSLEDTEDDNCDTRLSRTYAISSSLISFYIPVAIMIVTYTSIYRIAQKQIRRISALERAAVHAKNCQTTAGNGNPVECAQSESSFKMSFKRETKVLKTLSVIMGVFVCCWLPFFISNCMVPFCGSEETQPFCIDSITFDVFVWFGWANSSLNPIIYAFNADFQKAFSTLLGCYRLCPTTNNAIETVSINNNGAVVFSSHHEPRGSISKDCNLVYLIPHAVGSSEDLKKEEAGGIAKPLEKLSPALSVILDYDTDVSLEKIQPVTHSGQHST
Procedure: Frozen striatal tissue (ca. 40 mg) was homogenized in 4 ml of buffer (5 mM Hepes, 2 mM EGTA, pH 7.5) using 10 strokes in a Wheaton Teflon-glass homogenizer. Four ml of 50 mM Hepes with 2 mM EGTA buffer (pH 7.5) was added, and the tissue was homogenized by an additional 3 strokes. A 20 μl aliquot of this tissue homogenate was added to a prepared reaction. The reaction mixture consisted of 100 mM Hepes (pH 7.4), 100 mM NaCl, 4 mM MgCl2, 2 mM EDTA, 500 μM isobutyl methylxanthine (IBMX), 0.01% ascorbic acid, 10 μM pargyline, 2 mM ATP, 5 μM GTP, 20 mM phosphocreatine, 5 units of creatine phosphokinase (CPK), and selected concentrations of DA. The final reaction volume was 100 μl. Basal cAMP activity was determined by incubation of tissue in the reaction mixture with no drug added. Tubes were assayed in duplicate. After a 15 min incubation at 30° C., the reaction was stopped with the addition of 500 μl of 0.1 N HCl. Tubes were vortexed briefly, and then spun in a BHG Hermle Z 230 M microcentrifuge for five min at 15,000×g to eliminate large particles. The concentration of cAMP in each sample was determined with an RIA of acetylated cAMP, modified from that previously described (Harper and Brooker, 1975). Iodination of cAMP was performed using a method described previously (Patel and Linden, 1988). Assay buffer was 50 mM sodium acetate buffer with 0.1% sodium azide (pH 4.75). Standard curves of cAMP were prepared in buffer at concentrations of 2 to 500 fmoles/assay tube. To improve assay sensitivity, all samples and standards were acetylated with 10 μl of a 2:1 solution of triethylamine:acetic anhydride. Samples were assayed in duplicate. Each assay tube contained 100 μl of diluted sample, 100 μl of primary antibody (sheep, anti-cAMP, 1:100,000 dilution with 1% BSA in buffer) and 100 μl of [^125I]-cAMP (50,000 dpm/100 μl of buffer); total assay volume was 300 μl. Tubes were vortexed and stored at 4° C. overnight (approx. 18 hr). Antibody-bound radioactivity was then separated by the addition of 25 μL of BioMag rabbit, anti-goat IgG (Advanced Magnetics, Cambridge Mass.), followed by vortexing and further incubation at 4° C. for 1 hr. To these samples 1 ml of 12% polyethylene glycol/50 mM sodium acetate buffer (pH 6.75) was added and all tubes were centrifuged at 1700×g for 10 min. Supernatants were aspirated and radioactivity in the resulting pellet was determined using an LKB Wallac gamma counter (Gaithersburg, Md.). Data were calculated for each sample, and expressed initially as pmol/mg/min cAMP. […] Normalized dose-response curves were analyzed by nonlinear regression using an algorithm for sigmoid curves in the curvefitting program InPlot (Graphpad, Inc.; San Francisco, Calif.). […]

D1 and D2 receptors = assay: D1:D2 selectivity from receptor binding
Procedure: (§1) Frozen rat striata was homogenized by seven manual strokes in a Wheaton Teflon-glass homogenizer in 8 ml ice cold 50 mM HEPES buffer with 4.0 mM MgCl2, (pH 7.4). The tissue was centrifuged at 27,000×g for 10 min, the supernatant was discarded, and the pellet was homogenized (5 strokes) and resuspended in ice cold buffer and centrifuged again. The final pellet was suspended at a concentration of approximately 2.0 mg wet weight/ml. The amount of tissue added to each assay tube was 1.0 mg, in a final assay volume of 1.0 ml. D1 receptors were labeled with [^3H] SCH23390 (0.30 nM). D2 receptors were labeled with [^3H] spiperone (0.07 nM); unlabeled ketanserin (50 nM) was added to mask binding to 5HT2 sites. Total binding was defined as radioligand bound in the absence of any competing drug. Nonspecific binding was estimated by adding unlabeled SCH23390 (1 μM) or unlabeled chlorpromazine ([…]) for D1 and D2 receptor binding assays, respectively. Triplicate determinations were made for each drug concentration in each assay. Assay tubes were incubated at 37° C. for 15 minutes. Binding was terminated by filtering with ice cold buffer on a Skatron 12 well cell harvester (Skatron, Inc., Sterling, Va.) using glass fiber filter mats (Skatron no. 7034). […] After shaking for 30 minutes, radioactivity was determined on a LKB Wallac 1219 RackBeta liquid scintillation counter (Wallac, Gaithersburg, Md.). […]

D1 receptors [3] = biological target: T2, D1 receptors (Macaca mulatta, UniProt O77680); assay: cAMP production in C-6-mD1 cells (cloned expressed primate D1A receptors); assay type: cell-based; settings: for agonist intrinsic activity at D1 receptors: C-6-mD1 cells / cloned expressed primate D1A receptors, relative to dopamine
T2 construct: expressed in transfected cells; host or cells: C-6 glioma cells (C-6-mD1)
T2 sequence (O77680 whole entry): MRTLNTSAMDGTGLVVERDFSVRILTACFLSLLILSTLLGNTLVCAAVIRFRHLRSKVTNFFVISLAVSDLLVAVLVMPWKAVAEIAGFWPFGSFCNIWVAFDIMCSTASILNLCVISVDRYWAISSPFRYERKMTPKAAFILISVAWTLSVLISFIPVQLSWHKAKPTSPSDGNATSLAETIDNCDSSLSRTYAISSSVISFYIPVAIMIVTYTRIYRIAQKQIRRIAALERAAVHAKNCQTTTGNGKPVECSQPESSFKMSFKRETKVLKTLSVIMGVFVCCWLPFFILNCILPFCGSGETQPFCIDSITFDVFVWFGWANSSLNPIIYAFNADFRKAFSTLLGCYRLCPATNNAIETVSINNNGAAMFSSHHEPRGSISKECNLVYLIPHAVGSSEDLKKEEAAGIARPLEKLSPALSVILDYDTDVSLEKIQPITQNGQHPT
Procedure: Radioreceptor and function studies were also conducted for cloned human or monkey receptors transfected into one of several cell lines [e.g., C-6 glioma or Chinese hamster ovary (CHO) cells]. Cells were grown in appropriate medium, and at confluency, harvested for membrane preparation. Flasks of cells in the same passage were scraped using a rubber policeman and collected in 50 ml centrifuge tubes. These were spun for 10 min at 1200×g, to pellet whole cells. The supernatant was discarded and then five ml of PBS (phosphate buffered saline)/flask was added to the centrifuge tubes to resuspend the cells. The tubes were then centrifuged again for […] at 28,500×g. The PBS was removed and the pellet suspended in a solution of 10% DMSO in PBS. Cells were homogenized with a polytron for 10 seconds on setting 5. One ml aliquots were stored at −80° C. until use in receptor binding studies. Aliquots contained approximately 1 mg/ml of protein, as measured using the BCA protein assay reagent (Pierce, Rockford, Ill.). Agonist intrinsic activity was assessed by the ability of selected compounds to stimulate adenylate cyclase, as measured by cAMP formation in whole cells. In C-6 cells, for example, the dose response curve for each drug was fit using a sigmoid function to determine maximal effective concentration (top plateau of curve) as well as EC50s. All drugs were run in the same assay in order to decrease variability across cell passages. Confluent plates of cells were incubated with drugs dissolved in DMEM-H plain media supplemented with 20 mM Hepes, 0.01% ascorbic acid and 500 μM iso-butyl-methyl xanthine (IBMX; pH 7.2; media A). The final volume for each well was 500 μl. In addition to the dose response curves run for each drug, basal levels of cAMP and isoproterenol-stimulated (through endogenous β2 receptors, positive control) cAMP levels were evaluated for each plate. Each condition was run in duplicate wells. Following a 10 min incubation at 37° C., cells were rinsed briefly with media, and the reaction stopped with the addition of 500 μl 0.1 N HCl. Cells were then allowed to chill for 5-10 min at 4° C., the wells were scraped and the volume placed into 1.7 ml centrifuge tubes. An additional 1 ml of 0.1 N HCl was added to each tube, for a final volume of 1.5 ml/tube. Tubes were vortexed briefly, and then spun in a BHG Hermle Z 230 M microcentrifuge for five min at 15,000×g to eliminate large cellular particles. Cyclic AMP levels for each sample were determined as described above. Data were calculated for each sample, and expressed initially as pmol/mg/min cAMP. […] Normalized dose-response curves were analyzed by nonlinear regression using an algorithm for sigmoid curves in the curvefitting program InPlot (Graphpad, Inc.; San Francisco, Calif.). […]

[4] = test system: rat unilateral 6-OHDA-lesion model; assay: Rat unilateral 6-OHDA-lesion model, contralateral rotation; assay type: in vivo
Text: (§2) Accordingly dinoxyline and its derivatives have potential clinical utility in Parkinson's Disease and in other conditions where perturbation of dopamine receptors may be therapeutic.

[5] = test system: marmosets having moderately-severe MPTP-induced dopamine denervation; assay: Marmosets with moderately-severe MPTP-induced dopamine denervation; assay type: in vivo, marmoset; settings: preliminary studies
Text: as §2

[6] = biological target: T3, rat striatal D1 receptors (Rattus norvegicus, UniProt P18901); assay: Radioreceptor binding, rat striatal D1 receptors labeled with [3H]SCH23390
T3 construct: Frozen rat striata was homogenized by seven manual strokes; from tissue; host or cells: rat striatum
T3 sequence (P18901 whole entry): as the sequence (P18901 whole entry) above
Procedure: FIG. 1 is a graphic representation of the affinity of dinoxyline (circles), dinapsoline (diamonds) and (+)-SCH23390 (solid circles) for striatal D1 receptors. Rat striatal D1 receptors were labeled with [^3H]SCH23390 (1), and unlabeled dinoxyline, dinapsoline, or (+)-SCH23390 was added to determine the specific binding of each compound to the D1 receptor.
Frozen rat striata was homogenized by seven manual strokes in a Wheaton Teflon-glass homogenizer in 8 ml ice cold 50 mM HEPES buffer with 4.0 mM MgCl2, (pH 7.4). The tissue was centrifuged at 27,000×g for 10 min, the supernatant was discarded, and the pellet was homogenized (5 strokes) and resuspended in ice cold buffer and centrifuged again. The final pellet was suspended at a concentration of approximately 2.0 mg wet weight/ml. The amount of tissue added to each assay tube was 1.0 mg, in a final assay volume of 1.0 ml. D1 receptors were labeled with [^3H] SCH23390 (0.30 nM). D2 receptors were labeled with [^3H] spiperone (0.07 nM); unlabeled ketanserin (50 nM) was added to mask binding to 5HT2 sites. Total binding was defined as radioligand bound in the absence of any competing drug. Nonspecific binding was estimated by adding unlabeled SCH23390 (1 μM) or unlabeled chlorpromazine ([…]) for D1 and D2 receptor binding assays, respectively. Triplicate determinations were made for each drug concentration in each assay. Assay tubes were incubated at 37° C. for 15 minutes. Binding was terminated by filtering with ice cold buffer on a Skatron 12 well cell harvester (Skatron, Inc., Sterling, Va.) using glass fiber filter mats (Skatron no. 7034). Filters were allowed to dry and 2.0 ml of Optiphase HI-SAF II scintillation fluid was added. After shaking for 30 minutes, radioactivity was determined on a LKB Wallac 1219 RackBeta liquid scintillation counter (Wallac, Gaithersburg, Md.). Tissue protein levels were estimated using the BCA protein assay reagent.

striatal D2 receptors = assay: Radioreceptor binding, striatal D2 receptors labeled with [3H]spiperone; set-up: species or system rat; settings: compared with dihydrexidine
Procedure: FIG. 3 is a graphic representation of the affinity of dinoxyline (circles), dinapsoline (diamonds), and chlorpromazine for striatal D2 receptors labeled with [^3H]spiperone. Unlabeled dinoxyline, dinapsoline, or chlorpromazine was added to determine the specific binding of each compound to the D2 receptor.
as §1, with “respectively.” for “respectively. Triplicate determinations were made for each drug concentration in each assay. Assay tubes were incubated at 37° C. for 15 minutes. Binding was terminated by filtering with ice cold buffer on a Skatron 12 well cell harvester (Skatron, Inc., Sterling, Va.) using glass fiber filter mats (Skatron no. 7034).”

cloned human D4 receptor = biological target: T4, cloned human D4 receptor (Homo sapiens, UniProt P21917); assay: Radioreceptor binding, cloned human D4 receptor; settings: read-out: K0.5 at the cloned human D4 receptor
T4 construct: expressed in transfected cells; host or cells: not specified (e.g. C-6 glioma or CHO cells)
T4 sequence (P21917 1-419): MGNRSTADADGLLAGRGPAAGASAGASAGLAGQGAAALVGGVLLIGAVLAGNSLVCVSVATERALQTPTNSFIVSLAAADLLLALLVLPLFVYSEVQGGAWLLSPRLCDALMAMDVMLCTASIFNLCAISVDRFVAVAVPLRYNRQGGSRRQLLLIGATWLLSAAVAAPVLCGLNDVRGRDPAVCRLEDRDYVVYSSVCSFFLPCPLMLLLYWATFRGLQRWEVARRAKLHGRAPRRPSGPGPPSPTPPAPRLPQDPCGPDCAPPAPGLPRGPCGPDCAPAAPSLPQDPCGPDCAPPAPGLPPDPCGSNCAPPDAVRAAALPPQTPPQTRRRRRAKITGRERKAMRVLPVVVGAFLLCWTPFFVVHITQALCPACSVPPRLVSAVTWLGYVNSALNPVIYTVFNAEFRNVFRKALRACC
Procedure: Cells were grown in appropriate medium, and at confluency, harvested for membrane preparation. Flasks of cells in the same passage were scraped using a rubber policeman and collected in 50 ml centrifuge tubes. These were spun for 10 min at 1200×g, to pellet whole cells. The supernatant was discarded and then five ml of PBS (phosphate buffered saline)/flask was added to the centrifuge tubes to resuspend the cells. The tubes were then centrifuged again for min at 28,500×g. The PBS was removed and the pellet suspended in a solution of 10% DMSO in PBS. Cells were homogenized with a polytron for 10 seconds on setting 5. One ml aliquots were stored at −80° C. until use in receptor binding studies. Aliquots contained approximately 1 mg/ml of protein, as measured using the BCA protein assay reagent (Pierce, Rockford, Ill.). […]

D2-like receptors = assay: Functional selectivity at D2-like receptors in rats (in vivo or in vitro); set-up: species or system rat

Sequence of D1 receptor (P21728 whole entry): as the sequence (O77680 whole entry) above, with I311N counted along it

SMILES: NC[C@@H]1O[C@H](C23CC4CC(CC(C4)C2)C3)Cc2c1ccc(O)c2O [Example A-77636]
antiparkinsonian effects [1]: exceptional antiparkinsonian effects

SMILES: C=CCN1CCc2c(cc(O)c(O)c2Cl)C(c2ccccc2)C1 (stereo not shown) [SKF82958]
intrinsic efficacy at D1 receptor (D1 receptor): not to have full intrinsic efficacy

agonist intrinsic activity at D1 receptors (D1 receptors [2]; hydrobromide): full agonist activity
EC50 (D1 receptors [2]; rat striatum, read-out: EC50 in stimulating synthesis of cAMP via D1 receptors): < 30 nM
melting point: 298 to 302 °C (dec.)
D1:D2 selectivity (D1 and D2 receptors): equally high affinity for both receptors
agonist intrinsic activity at D1 receptors (D1 receptors [3]; hydrobromide): full agonist activity
EC50 (D1 receptors [3]; C-6-mD1 cells, read-out: EC50 in stimulating synthesis of cAMP via D1 receptors): < 30 nM
Ki ([6]; [3H]SCH23390 label, rat striatum, read-out: K0.5 for rat striatal D1 receptors): < 5 nM
affinity for dopamine D1 receptors labeled with [3H]SCH23390 (in words) ([6]; compared with dihydrexidine): high affinity
nH of competition curve ([6]; competition at D1 receptors labeled with [3H]SCH23390, shallow curve consistent with agonist properties): ca. 0.7
affinity for D2-like receptors (in words) (striatal D2 receptors): greater affinity
Ki (cloned human D4 receptor): < 45 nM
SMILES: Br.Oc1ccc2c(c1O)Oc1cccc3c1C2CNC3 (racemic) [dinoxyline, (±)-8,9-dihydroxy-1,2,3,11b-tetrahydrochromeno[4,3,2-de]isoquinoline hydrobromide]
duration of action relative to a similar dose of dihydrexidine ([4]; same route (subcutaneous)): more than twice
contralateral rotation ([4]; single subcutaneous dose): significant rotation
antiparkinson effects (locomotion, arousal, Parkinson signs) [5]: significant antiparkinson effects

agonist intrinsic activity at D1 receptors (D1 receptors [2]): full agonist
agonist intrinsic activity at D1 receptors (D1 receptors [3]): full agonist
SMILES: Oc1cc2c(cc1O)[C@H]1c3ccccc3CN[C@@H]1CC2 (racemic) [dihydrexidine, (±)-trans-10,11-dihydroxy-5,6,6a,7,8,12b-hexahydrobenzo[a]phenanthridine]
activity at D2-like receptors located post-synaptically (D2-like receptors): agonist
activity at D2-like receptors located pre-synaptically (D2-like receptors): antagonist
antiparkinsonian effects [1]: exceptional antiparkinsonian effects

D1:D2 selectivity (D1 and D2 receptors): five-fold
Ki (cloned human D4 receptor): > 1000 nM
SMILES: Oc1ccc2c(c1O)Cc1cccc3c1C2CNC3 (racemic) [dinapsoline, (±)-8,9-dihydroxy-2,3,7,11b-tetrahydro-1H-naphtho[1,2,3-de]isoquinoline, reference compound]

agonist intrinsic activity at D1 receptors (D1 receptors [2]): partial agonist
agonist intrinsic activity at D1 receptors (D1 receptors [3]): partial agonist
SMILES: Oc1cc2c(cc1O)C(c1ccccc1)CNCC2 (single isomer, unassigned; (+)) [(+)-SKF 38393, reference compound]
